The pIC50 is the IC50 on a negative log10 scale, so that one unit is a factor of ten. Low values mean a large IC50, high ones a small IC50.

pIC50: −log10 of the molar value.

Assay [1] addresses T1, human liver glycogen phosphorylase a (HLGPa) (Homo sapiens, UniProt P06737).
T1 construct: creating a full-length cDNA fused at the 5′ end to codons for methionine-glycine-alanine-histidine; 6x histidine tag (leader Met-Gly-Ala-His6-Gly-Gly) (N); Tev protease cleavage site (Glu-Asn-Leu-Tyr-Phe-Gln-Gly-Gly) (N); made in house; host or cells: E. coli (bacterial expression plasmid pTXK1007LTev)
T1 sequence (P06737 1-847): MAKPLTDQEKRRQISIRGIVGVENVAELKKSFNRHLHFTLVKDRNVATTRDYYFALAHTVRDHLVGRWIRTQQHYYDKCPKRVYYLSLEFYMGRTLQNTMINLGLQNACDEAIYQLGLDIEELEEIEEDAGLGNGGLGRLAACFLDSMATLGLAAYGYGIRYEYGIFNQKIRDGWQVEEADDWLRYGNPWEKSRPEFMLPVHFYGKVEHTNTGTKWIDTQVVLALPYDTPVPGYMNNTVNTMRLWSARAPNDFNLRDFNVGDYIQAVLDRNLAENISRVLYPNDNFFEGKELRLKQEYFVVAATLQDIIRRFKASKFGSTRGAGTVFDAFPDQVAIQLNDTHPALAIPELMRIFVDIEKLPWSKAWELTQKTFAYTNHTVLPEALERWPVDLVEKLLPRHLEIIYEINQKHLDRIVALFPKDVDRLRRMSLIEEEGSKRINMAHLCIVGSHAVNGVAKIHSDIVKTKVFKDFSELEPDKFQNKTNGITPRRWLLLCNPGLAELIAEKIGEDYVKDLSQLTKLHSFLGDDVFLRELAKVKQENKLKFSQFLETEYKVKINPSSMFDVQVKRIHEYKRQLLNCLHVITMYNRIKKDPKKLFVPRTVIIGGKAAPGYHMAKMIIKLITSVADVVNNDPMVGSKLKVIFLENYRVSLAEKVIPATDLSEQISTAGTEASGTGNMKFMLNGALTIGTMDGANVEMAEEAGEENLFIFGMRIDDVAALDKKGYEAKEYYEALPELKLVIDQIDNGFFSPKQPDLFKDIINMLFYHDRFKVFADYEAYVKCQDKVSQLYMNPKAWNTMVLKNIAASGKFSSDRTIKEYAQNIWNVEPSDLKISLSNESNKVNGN
The experiment in a line: Human liver glycogen phosphorylase a enzymatic activity assay. The class given is biochemical. Conditions: 15 nM HLGPa, coupled resorufin fluorescence readout; assay run with and without 10 mM glucose, condition of the value not stated. On the procedure:
The purified glycogen phosphorylase (GP) enzyme, wherein glycogen phosphorylase is in the activated “a” state, referred to as human liver glycogen phosphorylase a (HLGPa), can be obtained according to the following procedures.
Frozen purified glycogen phosphorylase (HLGPb) was thawed in at 4° C. then dialyzed overnight into 50 mM HEPES, 100 mM NaCl, pH 7.4. 15 mg of the dialyzed HLGPb, 3 mM ATP and 5 mM MgCl2 was incubated with 500 μl of the prepared Affi-Gel immobilized phosphorylase kinase beads equilibrated with 50 mM HEPES, 100 mM NaCl, pH 7.4. The degree of phosphorylation was monitored by following the increase in activity at 10 minute intervals using the assay system outlined below. […] MgCl2, 3.5 mM KH2PO4, 0.5 mM DTT, 0.4 mg/mL glycogen, 7.5 mM Glucose, 0.50 mM β-nicotinamide adenine dinucleotide (β-NAD), 3 U/mL phosphoglucomutase, and 5 U/mL glucose-6-phosphate dehydrogenase, Activity was monitored by following the reduction of NAD^+ at 340 nm. […]
An enzymatic assay was developed to measure the response of the activated form of glycogen phosphorylase (HLGPa) to small molecule (<1000 Da.) compounds. […] The change in fluorescence due to product formation was measured on a fluorescence plate reader (Molecular Devices SpectraMax M2) with excitation at 560 nm and emission at 590 nm.

Another assay deals with male CD rats. The experiment in a line: In vivo glucagon challenge model. Conditions: glucagon 10 ug/kg + Sandostatin i.v. 2 hr after dosing, serum glucose 0-20 min. Also on record: species or system rat. On the procedure: Jugular vein cannulated male CD rats (220-260 g) (Charles Rivers, Raleigh, N.C.) were received 1-2 days after cannulation, housed individually on Alpha-Dri™ bedding (Shepherd Specialty Papers, Inc., Kalamazoo, Mich.) with free access to food (Lab Diet 5001, PMI Nutrition International, Brentwood, Mo.) and water and maintained on a 12 h light/dark cycle at 21° C. and 50% relative humidity for 3-4 days prior to the glucagon challenge studies. On the day of the study, the rats were sorted by body weight into treatment groups (N=4-5) and housed individually in shoe box cages with clean Alpha-dri bedding. The cannula lines were opened by removal of 0.2 ml blood and flushed with 0.2 ml sterile saline. After a one hour acclimation, blood samples were collected to determine basal glucose and the rats were orally dosed with vehicle (5% DMSO: 30% Solutol HS15: 20% PEG400: 45% 25 mM N-methylglucamine) or drug (5 ml/kg). Two hr after drug dosing, a time zero blood sample (0.4 ml) was collected for determination of glucose and the rats were dosed through the jugular vein with Sandostatin, 0.5 mg/kg, (Novartis Pharmaceuticals Corp., East Hanover, N.J.) and glucagon, 10 ug/kg (Bedford Laboratories, Bedford, Ohio). Blood samples were collected after 10 and 20 min for glucose determination. Whole blood was placed in a Terumo Capiject blood collection tube (Terumo Medical. Corp., Elkton, Md.), allowed to sit at room temperature for 20-30 minutes and then centrifuged (3,000×G) to obtain serum. Serum levels of glucose were determined using an Olympus AU640™ clinical chemistry immuno-analyzer (Olympus America Inc., Melville, N.Y.). The % reduction (% R) of the vehicle glucose AUG was calculated for each drug treatment using the formula % reduction=100*1−(AUG drug/AUC vehicle), where AUG was calculated from serum glucose values using the equation AUG=(T0+T10)/2*10+(T10+T20)/2*10−(T0*20).

In assay [1], `COCc1cc(C)c(NC(=O)Nc2cc(-c3ccc(OC)nc3)ccc2C(=O)N[C@H](C(=O)O)[C@@H](C)OC(C)(C)C)c(C)c1` [Example 1, O-(1,1-Dimethylethyl)-N-({2-{[({2,6-dimethyl-4-[(methyloxy)methyl]phenyl}amino)carbonyl]amino}-4-[6-(methyloxy)-3-pyridinyl]phenyl}carbonyl)-L-threonine] had a negative logarithm of the IC50 (pIC50) of 8.30. Besides, the “% R (% reduction of the vehicle glucose AUC)” value with male CD rats (0.5 mg/kg oral) was 32%; with male CD rats (2 mg/kg oral), 53%; with male CD rats (5 mg/kg oral), 63%; in the assay with male CD rats (15 mg/kg oral), 70%.

The values are drawn from patent publication US20100234433A1, “GLYCOGEN PHOSPHORYLASE INHIBITOR COMPOUND AND PHARMACEUTICAL COMPOSITION THEREOF” (priority 2007, published 2010).
